Biological target: T1, human liver glycogen phosphorylase a (HLGPa) (Homo sapiens, UniProt P06737)
T1 construct: creating a full-length cDNA fused at the 5′ end to codons for methionine-glycine-alanine-histidine; 6xHis tag (leader Met-Gly-Ala-His6-Gly-Gly) (N); made in house; host or cells: E. coli (bacterial expression plasmid pTXK1007LTev)
T1 sequence (P06737 2-847 limits assumed): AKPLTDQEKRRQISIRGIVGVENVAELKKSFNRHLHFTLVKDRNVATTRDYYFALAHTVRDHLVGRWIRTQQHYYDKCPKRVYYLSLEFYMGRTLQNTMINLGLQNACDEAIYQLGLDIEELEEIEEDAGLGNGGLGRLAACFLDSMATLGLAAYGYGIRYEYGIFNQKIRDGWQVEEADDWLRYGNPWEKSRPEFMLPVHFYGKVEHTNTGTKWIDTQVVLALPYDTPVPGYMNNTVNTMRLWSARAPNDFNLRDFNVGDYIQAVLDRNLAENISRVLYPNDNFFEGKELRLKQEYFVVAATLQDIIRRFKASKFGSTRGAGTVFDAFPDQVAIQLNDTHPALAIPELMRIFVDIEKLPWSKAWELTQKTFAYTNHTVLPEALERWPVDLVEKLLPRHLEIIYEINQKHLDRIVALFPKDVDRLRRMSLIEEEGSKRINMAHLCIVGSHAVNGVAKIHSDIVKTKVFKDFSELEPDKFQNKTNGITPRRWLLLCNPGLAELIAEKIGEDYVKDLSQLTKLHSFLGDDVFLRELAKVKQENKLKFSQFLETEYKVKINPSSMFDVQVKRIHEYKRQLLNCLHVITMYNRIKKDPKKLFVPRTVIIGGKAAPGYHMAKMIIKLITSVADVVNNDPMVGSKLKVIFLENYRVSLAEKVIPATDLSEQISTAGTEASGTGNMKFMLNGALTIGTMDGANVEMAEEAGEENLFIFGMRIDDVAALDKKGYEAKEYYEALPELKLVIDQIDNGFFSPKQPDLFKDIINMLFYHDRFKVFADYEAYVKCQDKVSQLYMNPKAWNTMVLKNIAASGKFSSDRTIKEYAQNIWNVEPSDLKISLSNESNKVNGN
Experiment: Human liver glycogen phosphorylase a enzymatic activity assay (coupled, fluorescent resorufin readout, with and without 10 mM glucose)
Assay type: biochemical
Details: human liver glycogen phosphorylase a enzymatic activity assay

SMILES | IC50 [nM]
COc1ccccc1-c1ccc(C(=O)N[C@H](C(=O)O)[C@@H](C)OC(C)(C)C)c(NC(=O)Nc2c(C)cc(C)cc2C)c1 [Example 524, O-(1,1-Dimethylethyl)-N-{[2′-(methyloxy)-3-({[(2,4,6-trimethylphenyl)amino]carbonyl}amino)-4-biphenylyl]carbonyl}-L-threonine] | 11
Cc1cc(C)c(NC(=O)Nc2cc(-c3cc(F)cc(F)c3)ccc2C(=O)N[C@H](C(=O)O)[C@@H](C)OC(C)(C)C)c(C)c1 [Example 525, N-{[3′,5′-Difluoro-3-({[(2,4,6-trimethylphenyl)amino]carbonyl}amino)-4-biphenylyl]carbonyl}-O-(1,1-dimethylethyl)-L-threonine] | 7
Cc1cc(C)c(NC(=O)Nc2cc(-c3cc(F)cc(F)c3)ccc2C(=O)N[C@H](C(=O)O)C2CCCCC2)c(C)c1 [Example 526, (2S)-Cyclohexyl({[3′,5′-difluoro-3-({[(2,4,6-trimethylphenyl)amino]carbonyl}amino)-4-biphenylyl]carbonyl}amino)ethanoic acid] | 5
Cc1cc(C)c(NC(=O)Nc2cc(-c3ccc(F)cc3)ccc2C(=O)N[C@H](C(=O)O)[C@@H](C)OC(C)(C)C)c(C)c1 [Example 527, O-(1,1-Dimethylethyl)-N-{[4′-fluoro-3-({[(2,4,6-trimethylphenyl)amino]carbonyl}amino)-4-biphenylyl]carbonyl}-L-threonine] | 3
Cc1cc(C)c(NC(=O)Nc2cc(-c3ccccc3)ccc2C(=O)N[C@H](C(=O)O)[C@@H](C)OC(C)(C)C)c(C)c1 [Example 528, O-(1,1-Dimethylethyl)-N-{[3-({[(2,4,6-trimethylphenyl)amino]carbonyl}amino)-4-biphenylyl]carbonyl}-L-threonine] | 3
Cc1cc(C)c(NC(=O)Nc2cc(-c3ccccc3)ccc2C(=O)NC2(C(=O)O)CCCCCCC2)c(C)c1 [Example 529, 1-({[3-({[(2,4,6-Trimethylphenyl)amino]carbonyl}amino)-4-biphenylyl]carbonyl}amino)cyclooctanecarboxylic acid] | 2
Cc1cc(C2CC2)cc(C)c1NC(=O)Nc1cc(-c2cccc(F)c2)ccc1C(=O)N[C@H](C(=O)O)[C@@H](C)OC(C)(C)C [Example 530, N-{[3-({[(4-Cyclopropyl-2,6-dimethylphenyl)amino]carbonyl}amino)-3′-fluoro-4-biphenylyl]carbonyl}-O-(1,1-dimethylethyl)-L-threonine] | 21
Cc1cc(C2CC2)cc(C)c1NC(=O)Nc1c(C(=O)N[C@H](C(=O)O)C2CCCCC2)ccc2ccccc12 [Example 531] | 19

Continued, values first:

IC50 [nM] | SMILES
11 | COc1ccc(-c2ccc(C(=O)N[C@H](C(=O)O)[C@@H](C)OC(C)(C)C)c(NC(=O)Nc3c(C)cc(C4CC4)cc3C)c2)cc1 [Example 532, N-{[3-({[(4-cyclopropyl-2,6-dimethylphenyl)amino]carbonyl}amino)-4′-(methyloxy)-4-biphenylyl]carbonyl}-O-(1,1-dimethylethyl)-L-threonine]
3 | Cc1cc(C)c(NC(=O)Nc2cc(-c3ccc(Cl)cc3)sc2C(=O)NC2(C(=O)O)CCCCC2)c(C)c1 [Example 533, 1-({[5-(4-Chlorophenyl)-3-({[(2,4,6-trimethylphenyl)amino]carbonyl}amino)-2-thienyl]carbonyl}amino)cyclohexanecarboxylic acid]
104 | Cc1cc(C)c(NC(=O)Nc2cc(-c3ccc(F)c(F)c3)sc2C(=O)NC2(C(=O)O)CCCCC2)c(C)c1 [Example 534, 1-({[5-(3,4-difluorophenyl)-3-({[(2,4,6-trimethylphenyl)amino]carbonyl}amino)-2-thienyl]carbonyl}amino)cyclohexanecarboxylic acid]
206 | Cc1cc(C)c(NC(=O)Nc2cc(-c3cc(F)c(F)c(F)c3)sc2C(=O)NC2(C(=O)O)CCCCC2)c(C)c1 [Example 535, 1-({[5-(3,4,5-trifluorophenyl)-3-({[(2,4,6-trimethylphenyl)amino]carbonyl}amino)-2-thienyl]carbonyl}amino) cyclohexanecarboxylic acid]
